The results in this text go back to paper PMC5632727, “Boeravinone B, A Novel Dual Inhibitor of NorA Bacterial Efflux Pump of Staphylococcus aureus and Human P-Glycoprotein, Reduces the Biofilm Formation and Intracellular Invasion of Bacteria” (Frontiers in Microbiology, 2017).

Where two headings read alike, the source gives them in different places.

Format in all cases: cell-based
In assay [1] the target is T1, NorA multidrug efflux pump (Staphylococcus aureus, UniProt Q03325).
T1 construct: gene norA1199
T1 sequence (Q03325 entry or part of it): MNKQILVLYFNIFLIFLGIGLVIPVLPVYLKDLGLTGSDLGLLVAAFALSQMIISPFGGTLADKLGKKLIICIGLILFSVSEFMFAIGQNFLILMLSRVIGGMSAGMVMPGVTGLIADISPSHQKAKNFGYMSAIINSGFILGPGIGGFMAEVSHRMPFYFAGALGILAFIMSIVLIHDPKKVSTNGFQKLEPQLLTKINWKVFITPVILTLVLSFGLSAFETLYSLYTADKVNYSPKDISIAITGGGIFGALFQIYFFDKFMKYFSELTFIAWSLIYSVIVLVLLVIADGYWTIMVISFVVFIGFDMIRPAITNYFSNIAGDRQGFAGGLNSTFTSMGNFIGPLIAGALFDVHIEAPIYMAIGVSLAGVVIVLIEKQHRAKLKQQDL
The assay can be described thus: ethidium bromide efflux and accumulation in NorA-overexpressing SA-1199B cells; no effect in norA knockout SA-K1758.

The target in assay [2] is T1, NorA multidrug efflux pump. The assay can be described thus: fluorescent efflux and accumulation in NorA-overexpressing, wild-type and knockout S. aureus cells.
Assay [3] concerns the target T1, NorA multidrug efflux pump.

`Cc1c(O)cc2oc3c(c(=O)c2c1O)-c1ccccc1OC3O` (stereo not drawn) [boeravinone B, 6,9,11-trihydroxy-10-methylchromeno[3,4-b]chromen-12(6H)-one]: the “ethidium bromide efflux and accumulation in NorA-overexpressing SA-1199B cells;” value in assay [1] is listed as “in cells treated with boeravinone B, the efflux of ethidium bromide was prevented, resulting in the prolonged retention of fluorescence”. As for `CC[n+]1c(-c2ccccc2)c2cc(N)ccc2c2ccc(N)cc21` [ethidium bromide], the “fluorescent efflux and accumulation in NorA-overexpressing, wild-type and knocko” value in assay [2] was “a rapid decrease occurred in the fluorescence because of the NorA-mediated efflux of ethidium bromide”.

For `COC(=O)[C@H]1[C@H]2C[C@@H]3c4[nH]c5cc(OC)ccc5c4CCN3C[C@H]2C[C@@H](OC(=O)c2cc(OC)c(OC)c(OC)c2)[C@@H]1OC` [reserpine], in assay [3], the “ethidium bromide efflux and accumulation in NorA-overexpressing SA-1199B cells;” value is “Reserpine, a known efflux pump inhibitor, was used as the positive control in both studies”.
